According to US11578051B2, “Thiophene carboxamide derivative and plant disease control agent comprising same” (KOREA RESEARCH INSTITUTE OF CHEMICAL TECHNOLOGY, priority 2018, dated 2023):

How the values were obtained:
Assay type in all cases: in vivo
[1] = system: cucumber sclerotinia pathogen (Sclerotinia sclerotiorum); experiment: Cucumber sclerotinia disease control effect test; settings: cucumber (Baekdadagi), foliar spray, active ingredient 200 ppm, spraying dose 30 mL, assessed 4 days after treatment
Description: A predetermined amount of the present compound corresponding to the test concentration was dissolved in 10% acetone and then was sprayed to foliage in a single leafy cucumber (cultivar: Baekdadagi) grown in a circular pot (6×7 cm, diameter×height). One day after application, the Cucumber plants were inoculated by spraying a mycelial suspension of a liquid culture of cucumber sclerotinia pathogen (Sclerotinia sclerotiorum) and incubated for 4 days under constant light conditions and high humidity conditions at 25° C. to induce disease development. Four days after the compound treatment, the disease incidence was assessed according to equation (1) of Experimental Example 1, and the control value was determined according to the criteria of Experimental Example 1.

[2] = system: rice sheath blight pathogen (Rhizoctonia solani); experiment: Rice sheath blight control effect test; settings: rice (Chucheongbyeo), foliar spray, active ingredient 200 ppm, spraying dose 30 mL, assessed 5 days after treatment
Description: A predetermined amount of the present compound corresponding to the test concentration was dissolved in 10% acetone and then was sprayed to foliage in the 5-leaf stage rice (variety: Chucheongbyeo) grown in a circular pot (6×7 cm, diameter×height). One day after application, the rice plants were inoculated by spraying a mycelial suspension of a culture of rice sheath blight pathogen (Rhizoctonia solani) obtained by culturing in a rice bran culture medium and incubated to induce disease development for 5 days under a humid condition at 30° C. After 5 days of the compound treatment, the disease incidence was assessed according to the equation (1) of Experimental Example 1, and the control value was determined according to the criteria of Experimental Example 1.

[3] = system: cucumber powdery mildew pathogen (Sphaerotheca fusca); experiment: Cucumber powdery mildew control effect test; settings: treatment concentration 10 ppm, as in Experimental Example 3
Description: A predetermined amount of the present compound corresponding to the test concentration was dissolved in 10% acetone and then was sprayed to foliage in a single leafy cucumber (variety: Baekdadagi) grown in a circular pot (6×7 cm, diameter×height). One day after application, the Cucumber plants were inoculated by spraying a spore suspension prepared with spores obtained from cucumber leaves infected with cucumber powdery mildew pathogen (Sphaerotheca fusca). After an incubation period of 1 day at 20° C. humid conditions, the plants were kept in a chamber for 12 days at a constant temperature and humidity under constant light conditions. After 13 days of the compound treatment, the disease incidence was assessed according to equation (1) of Experimental Example 1, and the control value was determined according to the criteria of Experimental Example 1. Compound No. 1 and the following four compounds as a comparative control compound were evaluated for controlling cucumber powdery mildew as described in Experimental Example 3.

| Structure (SMILES) | control value criterion [1] | control value criterion [2] | Activity (control value criterion) [3] |
| --- | --- | --- | --- |
| CON=Cc1c(F)cc(-c2ccccc2NC(=O)c2sccc2C)cc1F [Compound 1, N-(3′,5′-difluoro-4′-((methoxyimino)methyl)-[1,1′-biphenyl]-2-yl)-3-methylthiophene-2-carboxamide] | 5 (Control value 90-100%) | 5 (Control value 90-100%) | 5 (Control value 90-100%) |
| CON=Cc1ccc(-c2ccccc2NC(=O)c2cn(C)nc2C(F)F)cc1F [Comparative compound C, 3-(difluoromethyl)-N-(3′-fluoro-4′-((methoxyimino)methyl)-[1,1′-biphenyl]-2-yl)-1-methyl-1H-pyrazole-4-carboxamide] |  |  | 0 (less than 9% control value) |
| CON=Cc1ccc(-c2ccccc2NC(=O)c2sccc2C)cc1 [Comparative compound B, N-(4′-((methoxyimino)methyl)-[1,1′-biphenyl]-2-yl)-3-methylthiophene-2-carboxamide] |  |  | 1 (Control value 10-29%) |
| CON=Cc1ccc(-c2ccccc2NC(=O)c2cn(C)nc2C(F)F)cc1 [Comparative compound A, 3-(difluoromethyl)-N-(4′-((methoxyimino)methyl)-[1,1′-biphenyl]-2-yl)-1-methyl-1H-pyrazole-4-carboxamide] |  |  | 0 (less than 9% control value) |
| CON=Cc1c(F)cc(-c2ccccc2NC(=O)c2c(C(F)F)nn(C)c2Cl)cc1F [Comparative compound D, 5-chloro-N-(3′,5′-difluoro-4′-((methoxyimino)methyl)-[1,1′-biphenyl]-2-yl)-3-(difluoromethyl)-1-methyl-1H-pyrazole-4-carboxamide] |  |  | 1 (Control value 10-29%) |
